Assay results published in patent US20100137398A1, “USE OF HDAC INHIBITORS FOR THE TREATMENT OF GASTROINTESTINAL CANCERS” (NOVARTIS AG, priority 2007, published 2010).

Experiments:
Test in all cases: Cell proliferation assay, pancreatic cancer cell lines
Assay type in all cases: cell-based
[1] = tested on: Capan1 pancreatic cancer cell line
Source text: (§1) The MTT is a colorimetric assay to determine the cell proliferation rate. The yellow tetrazolium MTT (3-(4, 5-dimethylthiazolyl-2)-2, 5-diphenyltetrazolium bromide) is reduced, by metabolically active cells, in part by the action of dehydrogenase enzymes, to generate reducing equivalents such as NADH and NADPH. The resulting intracellular purple formazan can be solubilized and quantified by spectrophotometric means. The signals produced is directly proportional to the cell numbers. Describing the MTT assay in detail, experiments were done using six-point or 9 point drug titrations in multi-well tissue culture dishes, with outer rows left empty. Cells were suspended in complete media at densities of between 10^3 and 10^4 cell/ml, respectively, and added per well. The appropriate medium (200 μl) was then added. Twenty-four hours later, 10 μl of MTS solution, were added to one plates to determine the activity at the time of compound addition (T0). This plate was incubated at 37° for 4 hours and the optical density was measured on a Molecular Devices Thermomax at 490 nm using the Softmax program. The T0 plate served as a reference for initial activity at the beginning of the experiment.
(§2) Compound addition began 24 hours after seeding, the same time as the T0 determination. Serial dilutions at 4-fold 2-fold, 1-fold, 0.5-fold, 0.25-fold and 0.125-fold of previously determined IC50 values of each compound were made in a 96-deep well plate with the highest concentrations on the edge of the plate. Each of the six dilutions were added in triplicate and complete medium was added to the empty outer rows, without cells. The compounds were added to the plates singly or in combination with Compound III (LBH589). The plates were incubated at 37° C. for 72 hours from seeding. The MTS solution was added (as for the T0 plate) and read four hours later. In order to analyze the data, the average value of media alone (background) was subtracted from each experimental well and the triplicate values were averaged for each compound dilution. The following formulas were used to calculate percent growth.
(§3) If X>T0, % Growth=100×(X−T0)/(GC−T0))
(§4) If X<T0, % Growth=100×(X−T0)/T0)
(§5) T0=average value of T0 minus background
(§6) GC=average value of untreated cells (in triplicate) minus background X=average value, of compound treated cells (in triplicate) minus background
(§7) IC50 the concentration of LBH589 required to inhibit cell growth by 50% and LD50s the concentration required to reduce cell number (kill cells) to 50% the original innoculum were determined. The “% Growth” was plotted against compound concentration and used to calculate IC50s and LD50s, employing the user-defined spline function in Microsoft Excel.
(§8) Pancreatic cancer cell lines were treated with DMSO vehicle control or varying concentrations of LBH589 for 3 days. Cell proliferation was measured on the day of cell plating and on the third day post-treatment. IC50 and LD50 values were calculated as described above.

[2] = tested on: Panc4.03 pancreatic cancer cell line
Source text: as §1, §2, §3, §4, §5, §6, §7, §8

[3] = tested on: Hs766T pancreatic cancer cell line
Source text: as §1, §2, §3, §4, §5, §6, §7, §8

[4] = tested on: Panc10.05 pancreatic cancer cell line
Source text: as §1, §2, §3, §4, §5, §6, §7, §8

Cc1[nH]c2ccccc2c1CCNCc1ccc(/C=C/C(=O)NO)cc1 [LBH589, N-hydroxy-3-[4-[[[2-(2-methyl-1H-indol-3-yl)ethyl]-amino]methyl]phenyl]-2E-2-propenamide]
LD50 ([1]; Capan1, 3 days, concentration reducing cell number to 50% of original inoculum): 191.5 nM
IC50 ([1]; Homo sapiens, CAPAN-1, 72 h, Capan1, 3 days treatment): 55.6 nM
LD50 ([2]; Panc4.03, 3 days, concentration reducing cell number to 50% of original inoculum): >10 µM
IC50 ([2]; Pancreatic cancer cell, 72 h, Panc4.03, 3 days treatment): 20.3 nM
IC50 ([3]; 72 h, 3 days treatment): 14.1 nM
LD50 ([3]; 3 days, concentration reducing cell number to 50% of original inoculum): 119.9 nM
IC50 ([4]; Homo sapiens, Panc1005, 72 h, Panc10.05, 3 days treatment): 31.8 nM
LD50 ([4]; Panc10.05, 3 days, concentration reducing cell number to 50% of original inoculum): 282.4 nM
